What was measured:
Assay type in all cases: functional, cell-based
HT-29 = assay: The compound was tested in vitro for its antitumor activity against human colon cancer cell line HT-29
HCT-116 = assay: The compound was tested in vitro for its antitumor activity against human colon cancer cell line HCT116
MCF7 = assay: The compound was tested in vitro for its antitumor activity against human breast cell line MCF-7
MDA-MB-468 = assay: The compound was tested in vitro for its antitumor activity against human breast cell line MDA-468

`Oc1cccc(-c2nc3ccccc3s2)c1` was tested, and the IC50 (HT-29) was 78.7 µM, the IC50 (HCT-116) was > 100 µM and the IC50 (MCF7) was 51.8 µM. For the same compound, the IC50 (MDA-MB-468) was 50 nM.
With `Oc1ccc(-c2nc3ccccc3s2)cc1` the IC50 (HT-29) was 83.7 µM, the IC50 (HCT-116) was > 100 µM and the IC50 (MCF7) was 53.4 µM. The IC50 (MDA-MB-468) was 140 nM.
